Here are results for 3 compounds from article PMC4183595, “Study on the Main Components Interaction from Flos Lonicerae and Fructus Forsythiae and Their Dissolution In Vitro and Intestinal Absorption in Rats” (PLoS ONE, 2014).

Data set [1] can be described thus: Rat in vivo pharmacokinetics study after oral administration of product A, B or C. Conditions: for AUC(0-t) / AUC(0-inf) / MRT / Tmax / half-life / Cmax: male, Sprague-Dawley, rat, plasma; for AUC(0-t) / AUC(0-inf) / MRT / Tmax / half-life: 10 mL·kg^−1; for AUC(0-t) / AUC 0→t in product C group, increased to % compared to that in product A or B groups: rats; for AUC(0-t): oral product C group; for AUC(0-inf) / MRT / Tmax / half-life / Cmax: po, 10 mL·kg^−1, rats; for half-life: read-out: T 1/2z; for Cmax: mean±SD; for AUC 0→t in product C group, increased to % compared to that in product A or B groups: oral, product C versus product A or B. Also on record: species or system Male Sprague-Dawley (SD) rats; AUC 0→t in product C group, increased to % compared to that in product A or B groups: concentration or dose not given beside the values. The procedure: Product A (extract mixed with FLJ extract and water, (1∶1, v / v )), product B (extract mixed with FF extract and water, (1∶1, v / v )) and product C (extract mixed with FLJ and FF extracts, (1∶1, v / v )) were given to oral administration to rats, respectively.
Male SD rats (∼250 g) were kept in an environmentally controlled breeding room (temperature: 20±2°C, relative humidity: 60±5%) for 1 week. […] The rats were randomly divided into three groups with no less than six rats in each group to receive various administrations at a single oral dose (10 mL·kg^−1) by gastric gavage. […] Subsequently, plasma was prepared by centrifugation at 1,816×g, 4°C for 7 min, and immediately analyzed or stored at −70°C for further analysis.
The main pharmacokinetic parameters including the peak plasma concentration (C max), the time to C max (T max), the AUC from 0 to infinity (AUC 0–∞), the AUC form 0 to time (AUC 0–t), mean residence time (MRT), and terminal elimination half-life (T 1/2z) were calculated by the non-compartmental analysis of plasma concentration vs. time data using the “DAS 2.1.1” software (Mathematical Pharmacology Professional Committee of China, Shanghai, China).

Data set [2] concerns Caco-2 cells. Nature of the data set: In vitro Caco-2 monolayer model, apical to basolateral transport (P app). It counts as in vitro ADME, human. The following applies: Caco-2 monolayer, HBSS pH 6.0, apical to basolateral. The procedure: Caco-2 cells were cultured in high glucose DMEM with 10% fetal bovine serum, 1% nonessential amino acids. Cells were cultured in a humidified atmosphere of 5% CO2 at 37°C. After reaching 80% confluens, Caco-2 cells were harvested with 0.05% trypsin-EDTA solution and seeded on top of CC inserts in 6-well plates, which has a surface area of 4.2 cm^2, at a density of 1.0×10^5 cells/cm^2. The protocols for cell culture in Transwell inserts were similar to those described previously.
Hank’s balanced salt solution (HBSS) was used as the transport buffer for the transport study in Caco-2 cells monolayer model. It was prepared by dissolving 9.5 grams of commercial available HBSS powder in 1000 mL water.
Cell culture experiments were described previously. Briefly, after culture medium was aspirated, the cell monolayers were washed three times with blank HBSS. […] The monolayers were incubated with the blank HBSS for 1 h with 37°C. Thereafter the incubation medium was aspirated. Afterwards, a solution containing the compound was loaded onto the apical side. The amounts of transported compound were measured as a function of time. […] The samples were taken at 0, 1, 2, 3 and 4 h after incubation. At the end of the transport experiment, integrity of the monolayer was monitored by TEER value.

Data set [3] relates to P-gp, MRP2 and BCRP. On the set-up: method as in PMID 24035225, PMID 25442264. Conditions: previous study; ref [21]–[22]; cited from earlier work.
[4] abbreviates: single oral dose 10 mL·kg^−1 of product A (FLJ extract and water 1:1).
Setting [5] is: single oral dose 10 mL·kg^−1 of product C (FLJ and FF extracts 1:1).

Like-named read-outs stand apart in the source and are kept apart here.

Broadly, the AUC(0-t) is exposure summed from dosing to a finite time, without extrapolation to infinity. Broadly, the AUC(0-inf) is total exposure, with the tail of the curve extrapolated. For orientation: MRT means the average time that molecules of a dose stay in the body. The Tmax is the time from dosing to the highest level. A word on the Cmax: it is the highest concentration seen after dosing. Take `O=C(/C=C/c1ccc(O)c(O)c1)O[C@H]1[C@H](O)C[C@](O)(C(=O)O)C[C@H]1O` [Cryptochlorogenic acid]: in data set [1], the area under the curve AUC(0-t) was 321 ng·h/mL and the “AUC 0→t in product C group, increased to % compared to that in product A or B groups” value worked out at 235%. In addition, in data set [1] (oral product A), the AUC(0-inf) was 196 ng·h/mL, the MRT is 5.55 h, the Tmax is 0.167 h and the half-life was found to be 1.73 ± 0.782 h. For the same compound, in data set [1] (oral product C), the area under the curve AUC(0-inf) was 351 ng·h/mL, the MRT is 7.55 h, the Tmax was 0.167 h and the half-life amounted to 4.65 ± 0.287 h. Also, the concentration in data set [1] (setting [4]) peaked (Cmax) at 352 ± 29.4 ng/mL. In data set [1] (setting [5]), this compound returned a Cmax of 449 ± 22.8 ng/mL. The “P app in product C group, % compared to that in product A group” value in data set [2] was 133%. In addition, in data set [3], the “efflux transporters influencing the intestinal absorption” value is “influenced by P-gp, MRP2 and BCRP”.
Consider `C[C@@H]1O[C@@H](OC[C@H]2O[C@@H](OCCc3ccc(O)c(O)c3)[C@H](O)[C@@H](O)[C@@H]2OC(=O)/C=C/c2ccc(O)c(O)c2)[C@H](O)[C@H](O)[C@H]1O` [Forsythoside A], for which, in data set [1], the AUC(0-t) is 420 ng·h/mL and the “AUC 0→t in product C group, increased to % compared to that in product A or B groups” value amounted to 230%. Further, in data set [1] (oral product B), the AUC(0-inf) is 229 ng·h/mL, the MRT is 3.75 h, the Tmax is 0.167 h and the half-life is 4.6 ± 1.04 h. Moreover, in data set [1] (oral product C), the AUC(0-inf) is 773 ng·h/mL, the MRT was 7.53 h, the time to peak (Tmax) is 0.167 h and the half-life is 5.98 ± 0.357 h. The compound further gave a peak concentration (Cmax) in data set [1] (single oral dose 10 mL·kg^−1 of product B (FF extract and water 1:1)) of 102 ± 6.19 ng/mL. Besides, the Cmax in data set [1] (setting [5]) is 182 ± 38.6 ng/mL. In data set [2], the “P app in product C group, % compared with that in product B group” value is reported as 165%. The “efflux transporters influencing the intestinal absorption” value in data set [3] is “affected by P-gp and MRP2, not BCRP”.
Consider `O=C(/C=C/c1ccc(O)c(O)c1)O[C@@H]1C[C@@](O)(C(=O)O)C[C@@H](O)[C@@H]1O` [Neochlorogenic acid], for which, in data set [1], the AUC(0-t) is 259 ng·h/mL and the “AUC 0→t in product C group, increased to % compared to that in product A or B groups” value stood at 286%. In data set [1] (oral product A), the AUC(0-inf) was 138 ng·h/mL, the MRT is 5.37 h, the Tmax is 0.167 h and the half-life is 7.63 ± 0.637 h. Moreover, in data set [1] (oral product C), the AUC(0-inf) is 404 ng·h/mL, the MRT was 6.45 h, the Tmax is 0.167 h and the half-life was 8.58 ± 0.467 h. For the same compound, the Cmax in data set [1] (setting [4]) is 75.7 ± 30.1 ng/mL. The compound further displayed a Cmax in data set [1] (setting [5]) of 181 ± 65 ng/mL. Moreover, the “P app in product C group, % compared to that in product A group” value in data set [2] amounted to 136%. Also, in data set [3], the “efflux transporters influencing the intestinal absorption” value is “influenced by P-gp, MRP2 and BCRP”.
